Source: PubChem BioAssay AID248 (DTP/NCI, 2004)
Values joined by “and” are separate entries in the source; they are usually repeats but may differ in a detail not shown here. Identical values can stand only once. Inconclusive results and toxic doses are left out.

Tested on: L1210 leukemia ip in BDF1 mice, survival T/C
Test: NCI In Vivo Anticancer Drug Screen. Data for tumor model L1210 Leukemia (intraperitoneal) in B6D2F1 (BDF1) mice
Settings: higher = longer survival
Method in brief: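 Transplanted-tumor mice were given test agent; controls received vehicle only. Survival readings from the two groups were divided (treated over control).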

[1] = endpoint: mean survival time, dose: 100.0 mg/kg/injection, schedule: Q01DX009 (ip), vehicle: saline with Tween-80
[2] = endpoint: mean survival time, dose: 200.0 mg/kg/injection, schedule: Q01DX009 (ip), vehicle: saline with Tween-80

With `O=C1c2ccccc2C(=O)c2c(NCCNCCO)ccc(NCCNCCO)c21` the T/C (endpoint: mean survival time, dose: 2.0 mg/kg/injection, schedule: Q01DX009 (ip), vehicle: Klucel (hydroxypropylcellulose) (HPC)) was 204 % of control, the T/C (endpoint: mean survival time, dose: 2.0 mg/kg/injection, schedule: Q01DX009 (ip), vehicle: saline with Tween-80) was 162 % of control and the T/C (endpoint: mean survival time, dose: 2.0 mg/kg/injection, schedule: Q01DX009 (ip), vehicle: water) was 196 % of control. For the same compound, the T/C (endpoint: mean survival time, dose: 4.0 mg/kg/injection, schedule: Q01DX009 (ip), vehicle: Klucel (hydroxypropylcellulose) (HPC)) was 306 % of control, the T/C (endpoint: mean survival time, dose: 4.0 mg/kg/injection, schedule: Q01DX009 (ip), vehicle: saline with Tween-80) was 153 % of control and the T/C (endpoint: mean survival time, dose: 4.0 mg/kg/injection, schedule: Q01DX009 (ip), vehicle: water) was 159 % of control. The T/C (endpoint: mean survival time, dose: 8.0 mg/kg/injection, schedule: Q01DX009 (ip), vehicle: Klucel (hydroxypropylcellulose) (HPC)) was 491 % of control, the T/C (endpoint: mean survival time, dose: 8.0 mg/kg/injection, schedule: Q01DX009 (ip), vehicle: saline with Tween-80) was 220 % of control and the T/C (endpoint: mean survival time, dose: 8.0 mg/kg/injection, schedule: Q01DX009 (ip), vehicle: water) was 498 % of control. The T/C (endpoint: mean survival time, dose: 16.0 mg/kg/injection, schedule: Q01DX009 (ip), vehicle: Klucel (hydroxypropylcellulose) (HPC)) was 347 % of control, the T/C (endpoint: mean survival time, dose: 16.0 mg/kg/injection, schedule: Q01DX009 (ip), vehicle: saline with Tween-80) was 253 % of control and the T/C (endpoint: mean survival time, dose: 16.0 mg/kg/injection, schedule: Q01DX009 (ip), vehicle: water) was 396 % of control. For the same compound, the T/C (endpoint: mean survival time, dose: 32.0 mg/kg/injection, schedule: Q01DX009 (ip), vehicle: Klucel (hydroxypropylcellulose) (HPC)) was 118 % of control, the T/C (endpoint: mean survival time, dose: 32.0 mg/kg/injection, schedule: Q01DX009 (ip), vehicle: saline with Tween-80) was 89 % of control and the T/C (endpoint: mean survival time, dose: 32.0 mg/kg/injection, schedule: Q01DX009 (ip), vehicle: water) was 93 % of control. For the same compound, the T/C (endpoint: median survival time, dose: 8.0 mg/kg/injection, schedule: Q01DX005 (oral), vehicle: Klucel (hydroxypropylcellulose) (HPC)) was 90 % of control, the T/C (endpoint: median survival time, dose: 8.0 mg/kg/injection, schedule: Q01DX005 (oral), vehicle: water) was 101 % of control and the T/C (endpoint: median survival time, dose: 16.0 mg/kg/injection, schedule: Q01DX005 (oral), vehicle: Klucel (hydroxypropylcellulose) (HPC)) was 98 % of control. For the same compound, the T/C (endpoint: median survival time, dose: 16.0 mg/kg/injection, schedule: Q01DX005 (oral), vehicle: water) was 101 % of control, the T/C (endpoint: median survival time, dose: 32.0 mg/kg/injection, schedule: Q01DX005 (oral), vehicle: Klucel (hydroxypropylcellulose) (HPC)) was 94 % of control and the T/C (endpoint: median survival time, dose: 32.0 mg/kg/injection, schedule: Q01DX005 (oral), vehicle: water) was 101 % of control. The T/C (endpoint: median survival time, dose: 64.0 mg/kg/injection, schedule: Q01DX005 (oral), vehicle: Klucel (hydroxypropylcellulose) (HPC)) was 100 % of control, the T/C (endpoint: median survival time, dose: 64.0 mg/kg/injection, schedule: Q01DX005 (oral), vehicle: water) was 97 % of control and the T/C (endpoint: median survival time, dose: 128.0 mg/kg/injection, schedule: Q01DX005 (oral), vehicle: Klucel (hydroxypropylcellulose) (HPC)) was 94 % of control. The T/C (endpoint: median survival time, dose: 128.0 mg/kg/injection, schedule: Q01DX005 (oral), vehicle: water) was 100 % of control, the T/C (endpoint: median survival time, dose: 256.0 mg/kg/injection, schedule: Q01DX005 (oral), vehicle: Klucel (hydroxypropylcellulose) (HPC)) was 98 % of control and the T/C (endpoint: median survival time, dose: 256.0 mg/kg/injection, schedule: Q01DX005 (oral), vehicle: water) was 102 % of control. For the same compound, the T/C (endpoint: median survival time, dose: 512.0 mg/kg/injection, schedule: Q01DX005 (oral), vehicle: Klucel (hydroxypropylcellulose) (HPC)) was 103 % of control and the T/C (endpoint: median survival time, dose: 512.0 mg/kg/injection, schedule: Q01DX005 (oral), vehicle: water) was 106 % of control.
With `O=CN(O)CC(=O)O.[Ni]` the T/C (endpoint: mean survival time, dose: 6.25 mg/kg/injection, schedule: Q01DX009 (ip), vehicle: saline) was 105 % of control and the T/C (endpoint: mean survival time, dose: 12.5 mg/kg/injection, schedule: Q01DX009 (ip), vehicle: saline) was 109 % of control.
With `C=NNc1nc2ccccc2s1` the T/C (endpoint: mean survival time, dose: 100.0 mg/kg/injection, schedule: Q04DX003 (ip), vehicle: gum acacia) was 96 % of control and the T/C (endpoint: mean survival time, dose: 200.0 mg/kg/injection, schedule: Q04DX003 (ip), vehicle: gum acacia) was 88 % of control.
`NC1CC(C(=O)O)CCC1S` (configuration not stated) was tested, and the T/C (endpoint: mean survival time, dose: 12.5 mg/kg/injection, schedule: Q04DX002 (ip), vehicle: saline) was 106 % of control, the T/C (endpoint: mean survival time, dose: 50.0 mg/kg/injection, schedule: Q04DX002 (ip), vehicle: other) was 94 % of control and the T/C (endpoint: mean survival time, dose: 50.0 mg/kg/injection, schedule: Q04DX002 (ip), vehicle: saline) was 87 % of control. The T/C (endpoint: mean survival time, dose: 100.0 mg/kg/injection, schedule: Q04DX002 (ip), vehicle: other) was 91 % of control.
`CC(C)CCCC(C)C1CCC2C3CCC4=CC5(CCC4(C)C3CCC12C)SCCS5` (configuration not stated) was tested, and the T/C (endpoint: mean survival time, dose: 50.0 mg/kg/injection, schedule: Q01DX009 (ip), vehicle: saline with Tween-80) was 98 % of control, the T/C [1] was 101 % of control and the T/C [2] was 95 % of control.
For `O=C1CC(c2ccccc2)=CN1c1ccc2ccccc2c1`, the T/C (endpoint: mean survival time, dose: 100.0 mg/kg/injection, schedule: Q04DX002 (ip), vehicle: Klucel (hydroxypropylcellulose) (HPC)) was 100 % of control, the T/C (endpoint: mean survival time, dose: 200.0 mg/kg/injection, schedule: Q04DX002 (ip), vehicle: Klucel (hydroxypropylcellulose) (HPC)) was 89 % of control and the T/C (endpoint: mean survival time, dose: 400.0 mg/kg/injection, schedule: Q04DX002 (ip), vehicle: Klucel (hydroxypropylcellulose) (HPC)) was 100 % of control.
With `COC(=O)C1CCC(N)CC1` (configuration not stated) the T/C (endpoint: mean survival time, dose: 100.0 mg/kg/injection, schedule: Q01DX001 (ip), vehicle: saline) was 106 % of control and 105 % of control, the T/C (endpoint: mean survival time, dose: 200.0 mg/kg/injection, schedule: Q01DX001 (ip), vehicle: saline) was 104 % of control and 94 % of control and the T/C (endpoint: mean survival time, dose: 400.0 mg/kg/injection, schedule: Q01DX001 (ip), vehicle: saline) was 108 % of control and 96 % of control.
For `O=C(O)C1CC1Oc1ccccc1` (configuration not stated), the T/C [1] was 96 % of control, the T/C (endpoint: mean survival time, dose: 100.0 mg/kg/injection, schedule: Q04DX003 (ip), vehicle: saline with Tween-80) was 110 % of control and the T/C [2] was 92 % of control. For the same compound, the T/C (endpoint: mean survival time, dose: 200.0 mg/kg/injection, schedule: Q04DX003 (ip), vehicle: saline with Tween-80) was 108 % of control, the T/C (endpoint: mean survival time, dose: 400.0 mg/kg/injection, schedule: Q01DX009 (ip), vehicle: saline with Tween-80) was 87 % of control and the T/C (endpoint: mean survival time, dose: 400.0 mg/kg/injection, schedule: Q04DX003 (ip), vehicle: saline with Tween-80) was 106 % of control.
